We go through eight molecules from ChEMBL document CHEMBL1201862, “PubChem BioAssay data set” (2004).

Activity calls are given as the source filed them.

Assay [1] deals with T1, Mitochondrial peptide methionine sulfoxide reductase (Bos taurus, UniProt P54149).
T1 sequence (P54149 whole entry): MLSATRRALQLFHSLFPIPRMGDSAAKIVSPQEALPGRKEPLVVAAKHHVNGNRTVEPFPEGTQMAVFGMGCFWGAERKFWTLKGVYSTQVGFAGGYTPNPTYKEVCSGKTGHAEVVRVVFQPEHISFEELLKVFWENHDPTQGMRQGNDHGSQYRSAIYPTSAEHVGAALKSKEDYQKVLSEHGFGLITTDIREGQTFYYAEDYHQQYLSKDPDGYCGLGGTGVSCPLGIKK
Nature of the assay: Absorbance-based biochemical high throughput dose response assay for activators of Methionine sulfoxide reductase A (MsrA). In kind it is functional.

Assay [2] has as its target T2, Rac GTPase-activating protein 1 (Homo sapiens, UniProt Q9H0H5).
T2 sequence (Q9H0H5 whole entry): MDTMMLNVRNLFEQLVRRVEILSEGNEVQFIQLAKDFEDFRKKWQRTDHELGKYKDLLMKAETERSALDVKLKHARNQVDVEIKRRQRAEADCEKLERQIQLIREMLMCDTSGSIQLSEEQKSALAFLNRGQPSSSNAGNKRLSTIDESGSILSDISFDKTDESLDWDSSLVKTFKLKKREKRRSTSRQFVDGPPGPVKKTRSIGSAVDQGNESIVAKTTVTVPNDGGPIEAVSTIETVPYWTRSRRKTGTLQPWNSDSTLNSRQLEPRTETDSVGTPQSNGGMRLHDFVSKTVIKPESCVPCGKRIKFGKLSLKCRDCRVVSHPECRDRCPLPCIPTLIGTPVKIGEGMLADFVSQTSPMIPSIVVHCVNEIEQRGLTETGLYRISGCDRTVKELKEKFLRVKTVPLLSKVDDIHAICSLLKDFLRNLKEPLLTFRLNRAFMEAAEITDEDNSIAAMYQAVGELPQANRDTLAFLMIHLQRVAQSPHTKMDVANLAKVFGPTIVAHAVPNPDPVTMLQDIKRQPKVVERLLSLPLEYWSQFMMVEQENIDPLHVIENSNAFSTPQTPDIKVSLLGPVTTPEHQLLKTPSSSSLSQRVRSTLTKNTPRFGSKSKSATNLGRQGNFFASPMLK
The assay is described as follows: MgcRacGAP GTPase-activating activity inhibitors, confirmation, biochemical, ADP Hunter fluorescence, primary and confirmatory (AID 624330). In kind it is functional.

Assay [3] addresses Tyrosine-protein phosphatase non-receptor type 11 (Homo sapiens, UniProt Q06124). Nature of the assay: SHP2 phosphatase inhibition, dose response, selectivity assay for STEP inhibitor project, biochemical (AID 602367). In kind it is functional. Particulars: read-out: IC50_Mean.
Assay [4] has as its target Tyrosine-protein phosphatase non-receptor type 5 (Homo sapiens, UniProt P54829). Nature of the assay: STEP phosphatase inhibitors, confirmation, biochemical, fluorescence intensity, uHTS hits (AID 602372). In kind it is functional. Conditions: read-out: IC50_Mean.
In assay [5] the target is Dual specificity protein phosphatase 3 (Homo sapiens, UniProt P51452). Nature of the assay: VHR phosphatase inhibition, dose response, selectivity assay for STEP inhibitor project, biochemical (AID 602374). It counts as functional. Conditions: read-out: IC50_Mean.
Sequence of Dual specificity protein phosphatase 3 (P51452 whole entry): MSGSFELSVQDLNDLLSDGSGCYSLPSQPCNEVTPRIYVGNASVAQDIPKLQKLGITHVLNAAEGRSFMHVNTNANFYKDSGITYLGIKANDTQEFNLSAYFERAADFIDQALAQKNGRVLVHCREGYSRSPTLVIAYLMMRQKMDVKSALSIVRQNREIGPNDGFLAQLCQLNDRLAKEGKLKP
Assay [6] addresses Potassium voltage-gated channel subfamily KQT member 2 (Rattus norvegicus, UniProt O88943). The assay is described as follows: KCNQ2 potassium channel inhibitors, dose response, cell-based, automated electrophysiology, set II, rat KCNQ2 (AID 588637). In kind it is functional.
The nature of assay [7]: ARNT/TACC3 interaction disruptors, potency, confirmation, biochemical, AlphaScreen, cherry-picked samples (AID 651703).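 Note: His-tagged ARNT PAS-B domain paired with GST-TACC3 E629A dimer coactivator fragment; potency of inhibitors that break up the complex and lower AlphaScreen signal.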 It counts as functional, Homo sapiens. A general note: Bead proximity is the source of the signal in Alpha formats.
In assay [8] the target is T3, Aurora kinase A (Homo sapiens, UniProt O14965).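 Note: value from the Navigating the Kinome kinase panel profiling, panel entry STK6.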
T3 sequence (O14965 whole entry): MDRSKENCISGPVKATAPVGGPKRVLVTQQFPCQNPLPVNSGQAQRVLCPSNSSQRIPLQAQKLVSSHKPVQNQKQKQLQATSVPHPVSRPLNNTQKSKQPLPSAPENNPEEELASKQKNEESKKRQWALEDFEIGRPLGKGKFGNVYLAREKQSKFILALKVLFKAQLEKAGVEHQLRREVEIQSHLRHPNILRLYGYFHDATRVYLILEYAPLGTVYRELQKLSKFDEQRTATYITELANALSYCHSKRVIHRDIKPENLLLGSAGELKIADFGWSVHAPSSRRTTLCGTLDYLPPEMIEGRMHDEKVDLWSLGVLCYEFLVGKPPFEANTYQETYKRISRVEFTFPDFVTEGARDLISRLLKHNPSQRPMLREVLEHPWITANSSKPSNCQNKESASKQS
In kind it is functional.

Assay [9] concerns the target Cyclin-dependent kinase 19 (Homo sapiens, UniProt Q9BWU1). The assay is described as follows: Navigating the Kinome. Panel member name: CDC2L6. In kind it is functional.
Assay [10] has as its target ALK tyrosine kinase receptor (Homo sapiens, UniProt Q9UM73). In kind it is functional.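 Note: ALK tested as one member of a kinase panel screen.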
Assay [11] deals with Tyrosine-protein kinase Lck (Homo sapiens, UniProt P06239). In kind it is functional.
Assay [12] addresses Serine/threonine-protein kinase pim-1 (Homo sapiens, UniProt P11309). It counts as functional.
The target of assay [13] is Tyrosine-protein kinase BTK (Homo sapiens, UniProt Q06187). It counts as functional.
Sequence of Tyrosine-protein kinase BTK (Q06187 whole entry): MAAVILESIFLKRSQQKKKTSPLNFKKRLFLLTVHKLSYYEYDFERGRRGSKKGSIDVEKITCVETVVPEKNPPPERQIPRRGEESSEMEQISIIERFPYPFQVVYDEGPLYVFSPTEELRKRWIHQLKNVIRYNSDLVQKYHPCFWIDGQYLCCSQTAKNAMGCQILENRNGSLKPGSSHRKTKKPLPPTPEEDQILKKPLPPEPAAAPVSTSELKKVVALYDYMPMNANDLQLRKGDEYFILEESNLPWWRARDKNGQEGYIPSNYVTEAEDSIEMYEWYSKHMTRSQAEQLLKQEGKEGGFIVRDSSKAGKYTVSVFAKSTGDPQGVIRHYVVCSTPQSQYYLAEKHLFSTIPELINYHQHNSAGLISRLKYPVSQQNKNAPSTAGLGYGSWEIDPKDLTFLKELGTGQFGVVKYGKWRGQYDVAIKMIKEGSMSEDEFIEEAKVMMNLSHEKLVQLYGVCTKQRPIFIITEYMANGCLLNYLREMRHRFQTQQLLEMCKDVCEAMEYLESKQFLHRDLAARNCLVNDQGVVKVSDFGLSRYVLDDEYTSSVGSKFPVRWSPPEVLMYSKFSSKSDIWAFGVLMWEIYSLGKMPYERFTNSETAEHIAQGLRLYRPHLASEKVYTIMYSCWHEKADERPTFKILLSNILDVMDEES
In assay [14] the target is T4, Serine/threonine-protein kinase TAO1 (Homo sapiens, UniProt Q7L7X3).
T4 sequence (Q7L7X3 whole entry): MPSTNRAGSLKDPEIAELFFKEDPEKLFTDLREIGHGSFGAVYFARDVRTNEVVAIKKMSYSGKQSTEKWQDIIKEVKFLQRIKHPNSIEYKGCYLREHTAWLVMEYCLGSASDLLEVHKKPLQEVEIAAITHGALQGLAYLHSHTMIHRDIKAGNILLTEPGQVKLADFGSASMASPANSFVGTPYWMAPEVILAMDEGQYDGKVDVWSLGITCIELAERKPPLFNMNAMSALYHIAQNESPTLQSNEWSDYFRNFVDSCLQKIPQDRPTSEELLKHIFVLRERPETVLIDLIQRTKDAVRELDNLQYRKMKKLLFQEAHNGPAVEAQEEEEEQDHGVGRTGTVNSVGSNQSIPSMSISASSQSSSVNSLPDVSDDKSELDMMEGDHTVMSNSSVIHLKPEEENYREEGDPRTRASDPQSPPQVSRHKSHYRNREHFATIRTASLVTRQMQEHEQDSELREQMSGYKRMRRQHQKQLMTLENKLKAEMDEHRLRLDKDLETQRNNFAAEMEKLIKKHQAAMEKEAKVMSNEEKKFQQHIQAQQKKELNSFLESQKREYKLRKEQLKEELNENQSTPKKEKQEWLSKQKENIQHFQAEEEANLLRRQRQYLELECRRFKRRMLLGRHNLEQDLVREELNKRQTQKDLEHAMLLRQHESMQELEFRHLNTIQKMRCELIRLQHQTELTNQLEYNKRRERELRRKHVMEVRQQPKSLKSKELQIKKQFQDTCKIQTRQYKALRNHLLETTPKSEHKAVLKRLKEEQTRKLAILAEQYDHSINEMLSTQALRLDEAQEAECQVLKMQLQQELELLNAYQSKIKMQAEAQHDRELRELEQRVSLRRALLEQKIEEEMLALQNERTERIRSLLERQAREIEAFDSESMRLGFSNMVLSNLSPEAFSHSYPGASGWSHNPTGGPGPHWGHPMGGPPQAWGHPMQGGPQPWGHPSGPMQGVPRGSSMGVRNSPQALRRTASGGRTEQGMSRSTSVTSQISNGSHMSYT
It counts as functional.

The target in assay [15] is Tyrosine-protein kinase Fyn (Homo sapiens, UniProt P06241). In kind it is functional.
Assay [16] addresses BDNF/NT-3 growth factors receptor (Homo sapiens, UniProt Q16620). It counts as functional.
For assay [17], the target named is Dual specificity protein kinase CLK4 (Homo sapiens, UniProt Q9HAZ1). It counts as functional.
Sequence of Dual specificity protein kinase CLK4 (Q9HAZ1 whole entry): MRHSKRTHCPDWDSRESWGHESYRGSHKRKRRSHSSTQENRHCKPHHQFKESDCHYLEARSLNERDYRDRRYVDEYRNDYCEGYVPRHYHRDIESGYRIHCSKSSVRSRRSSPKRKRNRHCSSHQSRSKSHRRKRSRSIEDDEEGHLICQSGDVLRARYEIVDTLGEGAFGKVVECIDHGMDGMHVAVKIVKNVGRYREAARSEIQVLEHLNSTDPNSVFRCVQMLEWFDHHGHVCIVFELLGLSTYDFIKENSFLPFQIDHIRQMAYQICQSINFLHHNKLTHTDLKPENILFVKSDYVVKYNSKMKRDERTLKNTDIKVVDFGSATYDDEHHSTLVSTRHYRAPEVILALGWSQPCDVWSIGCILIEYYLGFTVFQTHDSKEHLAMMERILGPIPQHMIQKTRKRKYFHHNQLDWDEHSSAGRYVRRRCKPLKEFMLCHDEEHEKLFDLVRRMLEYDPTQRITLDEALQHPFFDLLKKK
Assay [18] concerns the target T5, RNA-binding protein pos-1 (Caenorhabditis elegans, UniProt G5EF15).
T5 sequence (G5EF15 whole entry): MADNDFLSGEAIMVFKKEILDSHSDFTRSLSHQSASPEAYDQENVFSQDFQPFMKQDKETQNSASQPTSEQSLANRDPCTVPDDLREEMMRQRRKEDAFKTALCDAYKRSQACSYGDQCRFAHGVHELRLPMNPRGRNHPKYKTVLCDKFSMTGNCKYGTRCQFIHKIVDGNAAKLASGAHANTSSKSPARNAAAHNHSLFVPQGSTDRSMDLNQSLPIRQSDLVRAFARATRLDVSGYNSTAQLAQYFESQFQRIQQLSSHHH
Nature of the assay: inhibitors of POS-1/mex-3 RNA binding, dose response, biochemical, fluorescence polarization (AID 1964).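 Note: purified POS-1 fused to maltose binding protein made in E. coli; potency of compounds blocking POS-1 binding to fluorescent RNA.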 Background: Polarisation of emitted light reports the rotation of a fluorescent probe.

Assay [19] deals with T6, Zinc finger protein mex-5 (Caenorhabditis elegans, UniProt Q9XUB2).
T6 sequence (Q9XUB2 whole entry): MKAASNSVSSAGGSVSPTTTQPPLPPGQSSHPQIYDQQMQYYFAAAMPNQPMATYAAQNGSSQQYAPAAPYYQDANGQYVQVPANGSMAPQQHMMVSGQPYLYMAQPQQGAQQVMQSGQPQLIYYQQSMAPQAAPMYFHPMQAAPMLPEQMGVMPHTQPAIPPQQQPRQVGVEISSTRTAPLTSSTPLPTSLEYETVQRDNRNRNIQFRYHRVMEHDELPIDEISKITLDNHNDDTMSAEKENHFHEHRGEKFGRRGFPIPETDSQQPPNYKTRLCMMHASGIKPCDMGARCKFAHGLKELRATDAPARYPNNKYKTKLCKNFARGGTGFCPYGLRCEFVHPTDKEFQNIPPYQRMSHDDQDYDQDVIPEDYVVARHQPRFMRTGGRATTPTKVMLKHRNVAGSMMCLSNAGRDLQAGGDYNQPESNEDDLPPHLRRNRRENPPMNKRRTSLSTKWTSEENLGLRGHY
Nature of the assay: MEX-5/TCR-2 RNA interaction inhibitors, dose response, biochemical, C. elegans, fluorescence polarization (AID 1960).

The target of assay [20] is Dual specificity tyrosine-phosphorylation-regulated kinase 1A (Rattus norvegicus, UniProt Q63470). In kind it is biochemical, Homo sapiens.

Sequence of Potassium voltage-gated channel subfamily KQT member 2 (O88943 whole entry, the tested form may be a part): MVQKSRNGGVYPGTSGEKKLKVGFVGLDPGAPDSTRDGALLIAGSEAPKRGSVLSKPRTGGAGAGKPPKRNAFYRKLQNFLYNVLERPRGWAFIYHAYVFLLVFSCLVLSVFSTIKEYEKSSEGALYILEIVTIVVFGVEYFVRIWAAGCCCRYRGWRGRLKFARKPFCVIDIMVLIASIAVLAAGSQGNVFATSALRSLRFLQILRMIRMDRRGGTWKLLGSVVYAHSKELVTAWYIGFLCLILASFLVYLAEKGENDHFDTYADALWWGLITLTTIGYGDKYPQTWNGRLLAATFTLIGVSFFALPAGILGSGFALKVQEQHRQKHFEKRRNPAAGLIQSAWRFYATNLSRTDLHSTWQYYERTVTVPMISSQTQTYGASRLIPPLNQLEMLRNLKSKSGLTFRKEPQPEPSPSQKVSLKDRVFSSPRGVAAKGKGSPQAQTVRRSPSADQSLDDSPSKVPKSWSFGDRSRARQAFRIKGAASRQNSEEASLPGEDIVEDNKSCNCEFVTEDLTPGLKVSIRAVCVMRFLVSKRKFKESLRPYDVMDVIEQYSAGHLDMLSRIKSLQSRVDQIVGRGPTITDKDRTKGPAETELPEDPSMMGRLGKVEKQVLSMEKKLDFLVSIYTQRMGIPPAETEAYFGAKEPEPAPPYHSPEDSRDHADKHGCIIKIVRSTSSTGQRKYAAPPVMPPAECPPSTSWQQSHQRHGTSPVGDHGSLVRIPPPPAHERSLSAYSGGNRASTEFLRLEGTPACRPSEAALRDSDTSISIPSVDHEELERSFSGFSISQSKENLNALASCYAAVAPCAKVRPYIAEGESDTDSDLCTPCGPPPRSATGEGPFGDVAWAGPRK
Sequence of BDNF/NT-3 growth factors receptor (Q16620 whole entry): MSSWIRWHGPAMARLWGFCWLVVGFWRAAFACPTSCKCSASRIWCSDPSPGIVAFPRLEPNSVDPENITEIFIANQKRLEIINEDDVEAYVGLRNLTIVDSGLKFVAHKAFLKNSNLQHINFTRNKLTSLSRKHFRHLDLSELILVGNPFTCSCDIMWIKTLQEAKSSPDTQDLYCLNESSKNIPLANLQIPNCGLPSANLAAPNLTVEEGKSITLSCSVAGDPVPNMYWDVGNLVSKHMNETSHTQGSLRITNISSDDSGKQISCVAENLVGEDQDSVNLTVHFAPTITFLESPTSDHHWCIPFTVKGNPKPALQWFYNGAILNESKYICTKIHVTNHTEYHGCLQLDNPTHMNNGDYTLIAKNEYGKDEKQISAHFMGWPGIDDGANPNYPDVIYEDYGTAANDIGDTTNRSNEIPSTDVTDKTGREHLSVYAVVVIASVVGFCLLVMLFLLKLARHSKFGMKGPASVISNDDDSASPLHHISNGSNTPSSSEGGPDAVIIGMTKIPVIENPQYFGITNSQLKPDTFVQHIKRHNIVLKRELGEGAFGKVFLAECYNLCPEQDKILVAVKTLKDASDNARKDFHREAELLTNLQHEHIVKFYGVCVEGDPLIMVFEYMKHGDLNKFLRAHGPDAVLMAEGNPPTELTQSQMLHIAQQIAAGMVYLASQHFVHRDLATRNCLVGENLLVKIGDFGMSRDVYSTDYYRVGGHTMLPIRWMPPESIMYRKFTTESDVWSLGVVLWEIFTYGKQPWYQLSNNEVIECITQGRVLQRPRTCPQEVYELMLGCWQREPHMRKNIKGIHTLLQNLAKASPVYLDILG
Sequence of Tyrosine-protein phosphatase non-receptor type 5 (P54829 whole entry): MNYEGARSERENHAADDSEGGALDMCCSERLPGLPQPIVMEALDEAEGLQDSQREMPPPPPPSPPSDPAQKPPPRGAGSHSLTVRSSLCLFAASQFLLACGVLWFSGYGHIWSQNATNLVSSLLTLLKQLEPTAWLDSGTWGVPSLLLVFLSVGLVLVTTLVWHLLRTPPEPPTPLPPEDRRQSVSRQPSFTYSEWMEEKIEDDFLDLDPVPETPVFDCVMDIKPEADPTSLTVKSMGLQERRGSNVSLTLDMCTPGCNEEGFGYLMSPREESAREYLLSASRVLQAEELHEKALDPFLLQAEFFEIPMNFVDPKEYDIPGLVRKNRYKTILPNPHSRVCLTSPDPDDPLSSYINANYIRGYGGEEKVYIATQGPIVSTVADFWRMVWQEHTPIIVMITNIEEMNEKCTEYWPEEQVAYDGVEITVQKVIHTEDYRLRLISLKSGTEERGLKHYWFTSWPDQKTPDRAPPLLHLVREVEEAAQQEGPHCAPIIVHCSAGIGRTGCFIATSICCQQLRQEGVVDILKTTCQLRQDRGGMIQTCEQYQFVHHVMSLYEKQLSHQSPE
Sequence of Tyrosine-protein phosphatase non-receptor type 11 (Q06124 whole entry): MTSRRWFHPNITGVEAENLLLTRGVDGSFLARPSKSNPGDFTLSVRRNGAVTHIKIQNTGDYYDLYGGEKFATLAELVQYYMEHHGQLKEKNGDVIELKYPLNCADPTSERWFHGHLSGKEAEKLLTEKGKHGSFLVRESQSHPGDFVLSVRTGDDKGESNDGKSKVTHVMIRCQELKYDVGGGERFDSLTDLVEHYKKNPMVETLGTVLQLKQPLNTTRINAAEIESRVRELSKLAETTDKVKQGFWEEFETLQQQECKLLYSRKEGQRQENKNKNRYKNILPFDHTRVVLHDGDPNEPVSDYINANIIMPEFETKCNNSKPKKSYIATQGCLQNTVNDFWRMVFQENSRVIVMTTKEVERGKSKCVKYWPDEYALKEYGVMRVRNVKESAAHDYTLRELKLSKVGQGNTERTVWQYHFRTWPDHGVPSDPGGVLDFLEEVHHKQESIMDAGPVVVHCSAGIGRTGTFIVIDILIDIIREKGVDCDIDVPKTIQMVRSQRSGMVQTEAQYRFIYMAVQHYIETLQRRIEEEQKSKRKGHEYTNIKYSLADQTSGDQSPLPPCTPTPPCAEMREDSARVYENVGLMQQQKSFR
Sequence of Cyclin-dependent kinase 19 (Q9BWU1 whole entry): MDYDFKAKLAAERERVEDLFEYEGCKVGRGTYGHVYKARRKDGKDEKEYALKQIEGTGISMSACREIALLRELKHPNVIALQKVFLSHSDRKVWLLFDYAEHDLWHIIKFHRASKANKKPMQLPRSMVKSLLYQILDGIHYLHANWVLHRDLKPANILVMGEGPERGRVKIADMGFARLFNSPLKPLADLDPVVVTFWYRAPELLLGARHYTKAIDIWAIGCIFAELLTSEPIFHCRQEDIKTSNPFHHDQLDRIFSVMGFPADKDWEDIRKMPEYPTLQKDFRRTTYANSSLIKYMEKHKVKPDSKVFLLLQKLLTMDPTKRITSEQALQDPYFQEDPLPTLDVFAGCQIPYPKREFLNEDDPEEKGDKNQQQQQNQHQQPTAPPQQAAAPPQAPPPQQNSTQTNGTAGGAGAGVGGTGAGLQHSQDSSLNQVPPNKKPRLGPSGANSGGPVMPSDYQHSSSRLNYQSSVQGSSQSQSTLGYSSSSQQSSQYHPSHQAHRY
Sequence of Serine/threonine-protein kinase pim-1 (P11309 whole entry): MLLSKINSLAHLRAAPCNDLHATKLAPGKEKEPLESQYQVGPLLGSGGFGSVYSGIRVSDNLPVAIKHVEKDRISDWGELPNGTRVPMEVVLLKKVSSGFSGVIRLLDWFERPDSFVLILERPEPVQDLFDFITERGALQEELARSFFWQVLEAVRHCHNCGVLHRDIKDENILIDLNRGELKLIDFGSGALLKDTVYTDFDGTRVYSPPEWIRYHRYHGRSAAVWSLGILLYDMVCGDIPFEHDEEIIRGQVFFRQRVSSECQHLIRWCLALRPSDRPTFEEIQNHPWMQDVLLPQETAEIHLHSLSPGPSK

In general, EC50 refers to the concentration that produces a half-maximal response. As to `Nc1nc(=S)ss1`, the EC50 in assay [1] is 10.3 µM (inactive). In addition, the IC50 in assay [2] is 301 µM (active).
Turning to `CCOC(=O)c1c(NC(=O)OC)sc(C(=O)N(CC)CC)c1C`, the IC50 in assay [3] is 4.3 µM (active); in [4], 28.4 µM (inactive); in [5] it was 1.56 µM (active).
For `COc1ccc(Nc2ccccc2NC(=O)c2ccccc2Br)cc1`, the IC50 in [6] is 4.81 µM (active).
The term AC50 denotes the concentration at which the activity in the assay is half-maximal. Take `FC(F)(F)c1cnc(-c2cnc(-c3ccccn3)nc2)c(Cl)c1`: the AC50 in assay [7] was 75.3 µM (active).
Usually Ki stands for the dissociation constant of the complex between target and ligand, obtained from inhibition or displacement. For the molecule `Cc1ccc(NC(=O)Nc2ccc(-c3c(Cc4cccnc4)sc4ncnc(N)c34)cc2)cc1`, the Ki was 0.0631 µM (active) in assay [8] and > 100 µM (inactive) in assay [9].
`Cc1ccc2c(C)c(C(=O)N3CCN(c4ncccn4)CC3)oc2c1C`: the IC50 in assay [6] was 4.2 µM (active).
Consider `O=C(Nc1ccccc1N1CCCC1)c1ccc2ccccc2n1`, for which the Ki in [10], in assay [11], in [12], in [13], in assay [14] and in assay [15] was > 6.31 µM (inactive) throughout. Also, the Ki in assay [16] is 0.631 µM (active); in assay [17], 1.26 µM (active).
Regarding `O=C1c2ccccc2C(=O)c2[nH]cnc21`, the results for the EC50 in [18], in assay [19] and in [1] were > 300 µM (not active), 85.6 µM (active) and > 104 µM (inactive), respectively. Also, the half-maximal activity concentration (AC50) in [20] was 7.57 µM (active).
